In patent US20080009485A1, “Methods for the use of inhibitors of cytosolic phospholipase A2 in the treatment of thrombosis” (Wyeth, priority 2006, published 2008):

Legend:
[1] = biological target: T1, cPLA2 (Homo sapiens, UniProt P47712); assay: Coumarin assay (hydrolysis of 7-hydroxycoumarinyl 6-heptenoate); format: biochemical; conditions: 60 μM 7-hydroxycoumarinyl 6-heptenoate, 4 μg cPLA2, pH 7.5
T1 sequence (P47712 1-749): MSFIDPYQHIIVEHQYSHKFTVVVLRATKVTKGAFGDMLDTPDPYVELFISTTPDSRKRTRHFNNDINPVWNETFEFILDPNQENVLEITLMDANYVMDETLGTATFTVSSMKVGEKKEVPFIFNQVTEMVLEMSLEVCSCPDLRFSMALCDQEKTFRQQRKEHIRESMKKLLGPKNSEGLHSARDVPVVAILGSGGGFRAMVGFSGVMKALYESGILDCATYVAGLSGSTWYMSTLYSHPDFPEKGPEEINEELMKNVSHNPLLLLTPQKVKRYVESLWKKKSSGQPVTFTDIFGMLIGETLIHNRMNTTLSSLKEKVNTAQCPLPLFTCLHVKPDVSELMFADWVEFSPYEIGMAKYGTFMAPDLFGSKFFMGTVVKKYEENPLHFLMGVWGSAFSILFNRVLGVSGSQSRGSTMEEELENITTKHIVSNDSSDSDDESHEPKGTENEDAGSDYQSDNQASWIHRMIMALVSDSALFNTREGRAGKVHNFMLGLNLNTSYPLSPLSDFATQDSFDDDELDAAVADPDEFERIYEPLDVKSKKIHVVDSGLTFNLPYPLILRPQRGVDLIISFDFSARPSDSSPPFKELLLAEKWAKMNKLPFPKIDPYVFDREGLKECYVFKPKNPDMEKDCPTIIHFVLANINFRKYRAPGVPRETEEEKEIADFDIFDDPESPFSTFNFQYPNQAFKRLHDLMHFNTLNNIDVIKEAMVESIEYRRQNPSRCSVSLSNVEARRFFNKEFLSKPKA
Protocol: Inhibitors were mixed with 200 μL assay buffer (80 mM Hepes, pH 7.5, 1 mM EDTA) containing 60 μM 7-hydroxycoumarinyl 6-heptenoate. The reaction was initiated by adding 4 μg cPLA2 in 50 μL assay buffer. Hydrolysis of the 7-hydroxycounarimyl 6-heptenoate ester was monitored in a fluorometer by exciting at 360 nm and monitoring emission at 460 nm. Enzyme activity is proportional to the increase in emission at 460 nm per minute. In the presence of a cPLA2 inhibitor, the rate of increase is less.

[2] = Exposure after chow dosing in mice; conditions: mouse, in vivo, oral; ApoE knockout mice, chow diet supplemented at 3.3 mg/g chow
[3] = tested on: platelet aggregation; assay: PFA-100 ex vivo platelet aggregation of chow dosed mice; format: in vivo; conditions: ApoE knockout mice, 3.3 mg/g chow for 2 days; control 142±16, p<0.02
[4] = tested on: Human platelet aggregation; assay: Platelet Function Analyzer (PFA-100) study, whole human blood in vitro; format: cell-based; conditions: for prolongation of PFA-100 closure time: Collagen/Epinephrine cartridges, 10 minutes incubation, DMSO vehicle 125±13.9 seconds
Protocol: Platelet Function Analyzer (PFA-100®) Study
Human platelet aggregation was also studied using the platelet function analyzer (PFA-100®). […] Tubes were inverted 5 times and the blood was transferred to 15 ml polypropylene conical tubes. […] The manufacturers protocol was followed for the PFA-100 using Collagen/Epinephrine cartridges (0.5% DMSO alone in whole blood gave closure times of 125±13.9 seconds). Maximum closure time is 300 seconds, as set by the manufacturer. […] The blood from two mice was pooled to obtain enough blood (800 μl minimum) to conduct each assay.

| Molecule | IC50 [1] | other results |
| --- | --- | --- |
| 4-{2-[1-benzhydryl-5-chloro-2-(2-{[(2,6-dimethylbenzyl)sulfonyl]amino}ethyl)-1H-indol-3-yl]ethoxy}benzoic acid [Example 279] | 160 nM |  |
| 4-[2-(1-benzhydryl-5-chloro-2-{2-[({2-[(3R,5S)-3,5-dimethylmorpholin-4-yl]ethyl}sulfonyl)amino]ethyl}-1H-indol-3-yl)ethoxy]benzoic acid [Example 250] | 2100 nM |  |
| 2-{2-[1-Benzhydryl-5-chloro-2-(2-phenylmethanesulfonyl-amino-ethyl)-1H-indol-3-yl]-ethoxy}-benzoic acid [Example 283] | 500 nM |  |
| O=C(O)c1ccc(OCCc2c(CCNS(=O)(=O)Cc3cnc(Cl)c(Cl)c3)n(C(c3ccccc3)c3ccccc3)c3ccc(Cl)cc23)cc1 [Example 76] | 400 nM |  |
| O=C(O)c1ccc(OCCc2c(CCNS(=O)(=O)Cc3ccccc3Cl)n(C(c3ccccc3)c3ccccc3)c3ccc(Cl)cc23)cc1F [Example 297, 4-{2-[1-benzhydryl-5-chloro-2-(2-{[(2-chlorobenzyl)sulfonyl]amino}ethyl)-1H-indol-3-yl]ethoxy}-2-fluorobenzoic acid] |  | melting point: 132 to 135 °C |
| O=C(O)c1ccc(CCCc2c(CCNS(=O)(=O)Cc3ccc(Cl)c(Cl)c3)n(C(c3ccccc3)c3ccccc3)c3ccc(Cl)cc23)cc1 [Example 44, 4-{3-[1-benzhydryl-5-chloro-2-(2-{[(3,4-dichlorobenzyl)sulfonyl]amino}ethyl)-1H-indol-3-yl]propyl}benzoic acid] |  | Cmax [2]: ~500 ng/mL; closure time of the PFA-100, ex vivo [3]: 194 ± 49 s |
| Cc1cccc(C)c1CS(=O)(=O)NCCc1c(CCCc2ccc(C(=O)O)cc2)c2cc(Cl)ccc2n1C(c1ccccc1)c1ccccc1 [Example 52, 4-(3-[1-benzhydryl-5-chloro-2-(2-{[(2,6-dimethylbenzyl)-sulfonyl]amino}ethyl)-1H-indol-3-yl]propyl}benzoic acid] |  | prolongation of PFA-100 closure time [4]: able to prolong the closure time to varying extents; relative potency in PFA-100 closure time ([4]; compared: Examples 44, 52 and aspirin): most potent compound |
| O=C(O)CCc1ccc(S(=O)(=O)CCc2c(CCNS(=O)(=O)Cc3ccccc3Cl)n(C(c3ccccc3)c3ccccc3)c3ccc(Cl)cc23)cc1 [Example 129, 3-[4-({2-[1-Benzhydryl-5-chloro-2-(2-{[(2-chloro-benzyl)sulfonyl]amino}ethyl)-1H-indol-3-yl]ethyl}sulfonyl)phenyl]propanoic acid] | 130 nM |  |
| O=C(O)c1ccc(OCCc2c(CCNS(=O)(=O)Cc3c(Cl)cccc3Cl)n(C(c3ccccc3)c3ccccc3)c3ccc(Cl)cc23)cc1 [Example 73, 4-{2-[1-Benzhydryl-5-chloro-2-(2-{[(2-dichlorobenzyl)sulfonyl]amino}ethyl)-1H-indol-3-yl]ethoxy}benzoic acid] | 300 nM |  |
| NCc1ccccc1S(=O)(=O)NCCc1c(CCCc2ccc(C(=O)O)cc2)c2cc(Cl)ccc2n1C(c1ccccc1)c1ccccc1 [Example 156, 4-(3-{2-[2-({[2-(aminomethyl)phenyl]sulfonyl}amino)ethyl]-1-benzhydryl-5-chloro-1H-indol-3-yl}propyl)benzoic acid] | 160 nM |  |
| CC(=O)Oc1ccccc1C(=O)O [aspirin, reference compound] |  | prolongation of PFA-100 closure time [4]: able to prolong the closure time to varying extents |
| O=C(O)c1ccc(OCCc2c(CCNS(=O)(=O)CCN3CC4CC3CO4)n(C(c3ccccc3)c3ccccc3)c3ccc(Cl)cc23)cc1 (stereo not shown) [Example 251, 4-(2-{1-benzhydryl-5-chloro-2-[2-({[2-(2-oxa-5-azabicyclo[2.2.1]hept-5-yl)ethyl]sulfonyl}amino)ethyl]-1H-indol-3-yl}ethoxy)benzoic acid] | 1500 nM |  |
| O=C(O)c1ccc(OCCc2c(CCNS(=O)(=O)Cc3ccc(Cl)c(Cl)c3)n(C(c3ccccc3)c3ccccc3)c3ccc(Cl)cc23)cc1F [Example 296, 4-{2-[1-benzhydryl-5-chloro-2-(2-{[(3,4-dichlorobenzyl)sulfonyl]amino}ethyl)-1H-indol-3-yl]ethoxy}-2-fluorobenzoic acid] |  | melting point: 117 to 119 °C |
| CC(C)(Cc1ccc(S(=O)(=O)CCc2c(CCNS(=O)(=O)Cc3ccc(Cl)c(Cl)c3)n(C(c3ccccc3)c3ccccc3)c3ccc(Cl)cc23)cc1)C(=O)O [Example 298, 3-[4-({2-[1-benzhydryl-5-chloro-2-(2-{[(3,4-dichlorobenzyl)sulfonyl]amino}ethyl)-1H-indol-3-yl]ethyl}sulfonyl)phenyl]-2,2-dimethylpropanoic acid] |  | melting point: 207 to 208 °C |
